For series [1] the following is noted: cited from earlier work.
A further series addresses PKA-C (Mus musculus, UniProt P05132). Briefly: PKA-C catalyzed steady-state phosphorylation assay. Type of series: biochemical. Particulars: for catalytic efficiency kcat/Km: spectrophotometric, 340 nm, 299 K, 50 mM MOPS pH 7.0, 20 mM DTT, 10 mM MgCl2, 5.0 mM ATP, 1.0 mM PEP, 0.2 mM NADH, triplicate.
A short description of another series: NMR secondary structure. Particulars: in the presence of DPC micelles.

Where two headings read alike, the source gives them in different places.

In the case of “PLN1–20: peptide corresponding to the cytoplasmic domain Ia of phospholamban (MEKVQYLTRSAIRRASTIEM; UniProt P26678 1-20, looked up, fragment)”, the R-state population in series [1] (free in solution) is given as 100%. In addition, the “catalytic efficiency kcat/Km” value with PKA-C (absence of membranes) is on record as ~ 0.6 µM^−1s^−1. The “secondary structure (CSI and SSP scores)” value in “NMR secondary structure” is on record as “the peptide forms a stable α-helix”.

In the case of “PLN: synthetic and recombinant versions of full-length PLN with no lipidation; membrane protein that inhibits SERCA”, in series [1] (in DPC micelles), the R-state population is ~ 4%. Also, the “phosphorylation efficiency (in words)” value with PKA-C (PLN in DPC micelles, most helical construct studied) was “the phosphorylation efficiency is drastically lower”. Also, the “catalytic efficiency kcat/Km” value with PKA-C (full-length PLN in DPC micelles) is ~ 0.06 µM^−1s^−1.

These data come from paper PMC3513267 (Journal of molecular biology, 2011).
